Measured values: ChEMBL document CHEMBL1201862, “PubChem BioAssay data set” (2004)
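Assay format: 96-well plates, 48-hour exposure. At the GI50, growth is halved.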 Active and inactive are the calls of the source. No stated cut-off is given here; in the data, active = GI50 up to about 1.1 µM and inactive = higher.

Legend:
Assay in all cases: growth of human tumour cells (NCI), 48 h
786-0 = system: 786-0
A498 = system: A498
A549 = system: A549
ACHN = system: ACHN
CCRF-CEM = system: CCRF-CEM
COLO 205 = system: COLO 205
DLD-1 = system: DLD-1
DMS-114 = system: DMS-114
DMS-273 = system: DMS-273
EKVX = system: EKVX
HCC 2998 = system: HCC 2998
HCT-116 = system: HCT-116
HCT-15 = system: HCT-15
HL-60 = system: HL-60
HOP-18 = system: HOP-18
HOP-62 = system: HOP-62
HT-29 = system: HT-29
IGROV-1 = system: IGROV-1
K562 = system: K562
KM-20L2 = system: KM-20L2
KM12 = system: KM12
LOX IMVI = system: LOX IMVI
LXFL 529 = system: LXFL 529
M14 = system: M14
M19-MEL = system: M19-MEL
MOLT-4 = system: MOLT-4
Malme-3M = system: Malme-3M
NCI-H226 = system: NCI-H226
NCI-H23 = system: NCI-H23
NCI-H460 = system: NCI-H460
NCI-H522 = system: NCI-H522
OVCAR-3 = system: OVCAR-3
OVCAR-5 = system: OVCAR-5
OVCAR-8 = system: OVCAR-8
RPMI-8226 = system: RPMI-8226
RXF 393 = system: RXF 393
SF-295 = system: SF-295
SF-539 = system: SF-539
SK-MEL-28 = system: SK-MEL-28
SK-MEL-2 = system: SK-MEL-2
SK-MEL-5 = system: SK-MEL-5
SK-OV-3 = system: SK-OV-3
SN12C = system: SN12C
SNB-19 = system: SNB-19
SNB-75 = system: SNB-75
SNB-78 = system: SNB-78
SR = system: SR
SW-620 = system: SW-620
TK-10 = system: TK-10
U-251 = system: U-251
UACC-257 = system: UACC-257
UACC-62 = system: UACC-62
UO-31 = system: UO-31
XF498 = system: XF498
CAKI-1 = system: CAKI-1
HOP-92 = system: HOP-92
OVCAR-4 = system: OVCAR-4
SF-268 = system: SF-268

Question: With `C[P+]1(Cc2ccccc2)CCCC1` as the compound, how does the GI50 (786-0) read?
Answer: > 100 µM (inactive)

Question: What about the GI50 (A498) of the same compound?
Answer: > 100 µM (inactive)

Question: What about the GI50 (A549) of the same compound?
Answer: > 100 µM (inactive)

Question: And the GI50 (ACHN)?
Answer: > 100 µM (inactive)

Question: What about the GI50 (CCRF-CEM) of the same compound?
Answer: > 100 µM (inactive)

Question: What about the GI50 (COLO 205) of the same compound?
Answer: > 100 µM (inactive)

Question: What about the GI50 (DLD-1) of the same compound?
Answer: > 100 µM (inactive)

Question: What about the GI50 (DMS-114) of the same compound?
Answer: > 100 µM (inactive)

Question: What about the GI50 (DMS-273) of the same compound?
Answer: > 100 µM (inactive)

Question: What about the GI50 (EKVX) of the same compound?
Answer: > 100 µM (inactive)

Question: And the GI50 (HCC 2998)?
Answer: 71.1 µM (inactive)

Question: And the GI50 (HCT-116)?
Answer: > 100 µM (inactive)

Question: And the GI50 (HCT-15)?
Answer: > 100 µM

Question: And the GI50 (HL-60)?
Answer: > 100 µM (inactive)

Question: And the GI50 (HOP-18)?
Answer: 63.7 µM (inactive)

Question: And the GI50 (HOP-62)?
Answer: > 100 µM (inactive)

Question: What about the GI50 (HT-29) of the same compound?
Answer: > 100 µM (inactive)

Question: And the GI50 (IGROV-1)?
Answer: > 100 µM (inactive)

Question: And the GI50 (K562)?
Answer: > 100 µM (inactive)

Question: And the GI50 (KM-20L2)?
Answer: > 100 µM (inactive)

Question: And the GI50 (KM12)?
Answer: > 100 µM (inactive)

Question: What about the GI50 (LOX IMVI) of the same compound?
Answer: > 100 µM (inactive)

Question: What about the GI50 (LXFL 529) of the same compound?
Answer: > 100 µM (inactive)

Question: And the GI50 (M14)?
Answer: > 100 µM (inactive)

Question: What about the GI50 (M19-MEL) of the same compound?
Answer: > 100 µM (inactive)

Question: What about the GI50 (MOLT-4) of the same compound?
Answer: > 100 µM (inactive)

Question: What about the GI50 (Malme-3M) of the same compound?
Answer: 62.8 µM (inactive)

Question: And the GI50 (NCI-H226)?
Answer: > 100 µM (inactive)

Question: And the GI50 (NCI-H23)?
Answer: > 100 µM (inactive)

Question: What about the GI50 (NCI-H460) of the same compound?
Answer: > 100 µM (inactive)

Question: What about the GI50 (NCI-H522) of the same compound?
Answer: > 100 µM (inactive)

Question: What about the GI50 (OVCAR-3) of the same compound?
Answer: > 100 µM (inactive)

Question: And the GI50 (OVCAR-5)?
Answer: > 100 µM (inactive)

Question: And the GI50 (OVCAR-8)?
Answer: > 100 µM (inactive)

Question: And the GI50 (RPMI-8226)?
Answer: > 100 µM (inactive)

Question: And the GI50 (RXF 393)?
Answer: > 100 µM (inactive)

Question: And the GI50 (SF-295)?
Answer: > 100 µM (inactive)

Question: What about the GI50 (SF-539) of the same compound?
Answer: > 100 µM (inactive)

Question: What about the GI50 (SK-MEL-28) of the same compound?
Answer: > 100 µM (inactive)

Question: And the GI50 (SK-MEL-2)?
Answer: > 100 µM (inactive)

Question: What about the GI50 (SK-MEL-5) of the same compound?
Answer: > 100 µM (inactive)

Question: And the GI50 (SK-OV-3)?
Answer: > 100 µM (inactive)

Question: And the GI50 (SN12C)?
Answer: > 100 µM (inactive)

Question: And the GI50 (SNB-19)?
Answer: > 100 µM (inactive)

Question: And the GI50 (SNB-75)?
Answer: > 100 µM (inactive)

Question: And the GI50 (SNB-78)?
Answer: > 100 µM (inactive)

Question: What about the GI50 (SR) of the same compound?
Answer: > 100 µM (inactive)

Question: And the GI50 (SW-620)?
Answer: > 100 µM (inactive)

Question: And the GI50 (TK-10)?
Answer: > 100 µM (inactive)

Question: And the GI50 (U-251)?
Answer: > 100 µM (inactive)

Question: And the GI50 (UACC-257)?
Answer: > 100 µM (inactive)

Question: What about the GI50 (UACC-62) of the same compound?
Answer: > 100 µM (inactive)

Question: And the GI50 (UO-31)?
Answer: > 100 µM (inactive)

Question: What about the GI50 (XF498) of the same compound?
Answer: < 0.01 µM (active)

Question: `COc1cccc(NC(=O)C(C)(C)C)c1SSc1c(NC(=O)C(C)(C)C)cccc1OC` was tested. Which GI50 (786-0) did it give?
Answer: 21.6 µM (inactive)

Question: And the GI50 (A498)?
Answer: > 100 µM (inactive)

Question: And the GI50 (A549)?
Answer: 44.9 µM (inactive)

Question: And the GI50 (ACHN)?
Answer: 33.5 µM (inactive)

Question: And the GI50 (CAKI-1)?
Answer: > 42.5 µM (inactive)

Question: What about the GI50 (CCRF-CEM) of the same compound?
Answer: 17.1 µM (inactive)

Question: And the GI50 (COLO 205)?
Answer: 26.9 µM (inactive)

Question: And the GI50 (DLD-1)?
Answer: > 43.7 µM (inactive)

Question: And the GI50 (DMS-114)?
Answer: > 10 µM (inactive)

Question: What about the GI50 (DMS-273) of the same compound?
Answer: 96.8 µM (inactive)

Question: What about the GI50 (EKVX) of the same compound?
Answer: 64.1 µM (inactive)

Question: And the GI50 (HCC 2998)?
Answer: > 69.3 µM (inactive)

Question: And the GI50 (HCT-116)?
Answer: 22.4 µM (inactive)

Question: And the GI50 (HCT-15)?
Answer: 20 µM

Question: What about the GI50 (HL-60) of the same compound?
Answer: 20.3 µM (inactive)

Question: What about the GI50 (HOP-18) of the same compound?
Answer: > 69.7 µM (inactive)

Question: What about the GI50 (HOP-62) of the same compound?
Answer: > 100 µM (inactive)

Question: What about the GI50 (HOP-92) of the same compound?
Answer: 36.1 µM (inactive)

Question: What about the GI50 (HT-29) of the same compound?
Answer: 27.3 µM (inactive)

Question: What about the GI50 (IGROV-1) of the same compound?
Answer: > 81.1 µM (inactive)

Question: What about the GI50 (K562) of the same compound?
Answer: 22.9 µM (inactive)

Question: What about the GI50 (KM-20L2) of the same compound?
Answer: 98.4 µM (inactive)

Question: And the GI50 (KM12)?
Answer: 26.9 µM (inactive)

Question: And the GI50 (LOX IMVI)?
Answer: 15.4 µM (inactive)

Question: What about the GI50 (LXFL 529) of the same compound?
Answer: 15.8 µM (inactive)

Question: And the GI50 (M14)?
Answer: 17.5 µM (inactive)

Question: What about the GI50 (M19-MEL) of the same compound?
Answer: 35.2 µM (inactive)

Question: What about the GI50 (MOLT-4) of the same compound?
Answer: 17.7 µM (inactive)

Question: And the GI50 (Malme-3M)?
Answer: 33.7 µM (inactive)

Question: What about the GI50 (NCI-H226) of the same compound?
Answer: > 53.8 µM (inactive)

Question: And the GI50 (NCI-H23)?
Answer: 35 µM (inactive)

Question: What about the GI50 (NCI-H460) of the same compound?
Answer: 60.4 µM (inactive)

Question: And the GI50 (NCI-H522)?
Answer: 14.2 µM (inactive)

Question: And the GI50 (OVCAR-3)?
Answer: 37.9 µM (inactive)

Question: What about the GI50 (OVCAR-4) of the same compound?
Answer: 22.8 µM (inactive)

Question: What about the GI50 (OVCAR-5) of the same compound?
Answer: 26.7 µM (inactive)

Question: And the GI50 (OVCAR-8)?
Answer: 19.3 µM (inactive)

Question: What about the GI50 (RPMI-8226) of the same compound?
Answer: 5.78 µM (inactive)

Question: What about the GI50 (RXF 393) of the same compound?
Answer: 20.3 µM (inactive)

Question: What about the GI50 (SF-268) of the same compound?
Answer: 18.1 µM (inactive)

Question: And the GI50 (SF-295)?
Answer: 36.9 µM (inactive)

Question: And the GI50 (SF-539)?
Answer: 20.8 µM (inactive)

Question: What about the GI50 (SK-MEL-28) of the same compound?
Answer: 32.7 µM (inactive)

Question: What about the GI50 (SK-MEL-2) of the same compound?
Answer: 48.3 µM (inactive)

Question: What about the GI50 (SK-MEL-5) of the same compound?
Answer: 44.1 µM (inactive)

Question: And the GI50 (SK-OV-3)?
Answer: > 83.4 µM (inactive)

Question: And the GI50 (SN12C)?
Answer: 24.2 µM (inactive)

Question: And the GI50 (SNB-19)?
Answer: 59 µM (inactive)

Question: And the GI50 (SNB-75)?
Answer: 40.6 µM (inactive)

Question: And the GI50 (SNB-78)?
Answer: 22.3 µM (inactive)

Question: And the GI50 (SR)?
Answer: 19.2 µM (inactive)

Question: What about the GI50 (SW-620) of the same compound?
Answer: 18.2 µM (inactive)

Question: What about the GI50 (TK-10) of the same compound?
Answer: > 100 µM (inactive)

Question: What about the GI50 (U-251) of the same compound?
Answer: 17.3 µM (inactive)

Question: What about the GI50 (UACC-257) of the same compound?
Answer: 22.7 µM (inactive)

Question: What about the GI50 (UACC-62) of the same compound?
Answer: 19.3 µM (inactive)

Question: What about the GI50 (UO-31) of the same compound?
Answer: 31.5 µM (inactive)

Question: And the GI50 (XF498)?
Answer: 15.2 µM (inactive)
